Patent US20230085307A1, “PYRIDAZINONE COMPOUND AND HERBICIDE” (NISSAN CHEMICAL CORPORATION, priority 2019, published 2023)

Tests used:
Settings in all cases: amount of applied herbicide 320 g/ha
[1] = test system: barnyard grass; assay: Test Example 3: herbicidal effect by foliage application, Wagner pot (Table 18, symbol H); assay type: in vivo, barnyard grass (Echinochloa crus-galli)
Procedure, shortened: (§1)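 Plants were sown in alluvial soil held under 0.1–0.5 cm standing water and grown 14 days in a greenhouse at 25–30 °C. An emulsifiable formulation, water-diluted to the set dose, was then sprayed onto the foliage, and effects were scored three weeks later using previously defined criteria.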

[2] = test system: Chinese sprangletop; assay: Test Example 3: herbicidal effect by foliage application, Wagner pot (Table 18, symbol D); assay type: in vivo, chinese sprangletop (Leptochloa chinensis)
Procedure, shortened: as §1

[3] = test system: rice flat sedge; assay: Test Example 3: herbicidal effect by foliage application, Wagner pot (Table 18, symbol E); assay type: in vivo, rice flat sedge (Cyperus iria)
Procedure, shortened: as §1

[4] = test system: southern crabgrass; assay: Test Example 4: herbicidal effect by soil treatment (Table 19, symbol F); assay type: in vivo, southern crabgrass (Digitaria ciliaris)
Procedure, shortened: (§2)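 Step 1: sow seeds in sterilized diluvial soil, cover ~1.5 cm. Step 2: spray diluted emulsion onto soil surface at predetermined rate. Step 3: greenhouse, 25–30° C, three weeks. Step 4: grade effect on each plant by earlier criteria.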

[5] = test system: green foxtail; assay: Test Example 4: herbicidal effect by soil treatment (Table 19, symbol G); assay type: in vivo, green foxtail (Setaria viridis)
Procedure, shortened: as §2

[6] = test system: barnyard grass; assay: Test Example 4: herbicidal effect by soil treatment (Table 19, symbol H); assay type: in vivo, barnyard grass (Echinochloa crus-galli)
Procedure, shortened: as §2

[7] = test system: wild oat; assay: Test Example 4: herbicidal effect by soil treatment (Table 19, symbol I); assay type: in vivo, wild oat (Avena fatua)
Procedure, shortened: as §2

[8] = test system: blackgrass; assay: Test Example 4: herbicidal effect by soil treatment (Table 19, symbol J); assay type: in vivo, blackgrass (Alopecurus myosuroides)
Procedure, shortened: as §2

[9] = test system: Italian ryegrass; assay: Test Example 4: herbicidal effect by soil treatment (Table 19, symbol K); assay type: in vivo, Italian ryegrass (Lolium multiflorum)
Procedure, shortened: as §2

[10] = test system: windgrass; assay: Test Example 4: herbicidal effect by soil treatment (Table 19, symbol L); assay type: in vivo, windgrass (Apera spica-venti)
Procedure, shortened: as §2

[11] = test system: velvetleaf; assay: Test Example 4: herbicidal effect by soil treatment (Table 19, symbol M); assay type: in vivo, velvetleaf (Abutilon theophrasti)
Procedure, shortened: as §2

[12] = test system: redroot pigweed; assay: Test Example 4: herbicidal effect by soil treatment (Table 19, symbol N); assay type: in vivo, redroot pigweed (Amaranthus retroflexus)
Procedure, shortened: as §2

[13] = test system: lambsquarters; assay: Test Example 4: herbicidal effect by soil treatment (Table 19, symbol O); assay type: in vivo, lambsquarters (Chenopodium album)
Procedure, shortened: as §2

[14] = test system: chickweed; assay: Test Example 4: herbicidal effect by soil treatment (Table 19, symbol P); assay type: in vivo, common chickweed (Stellaria media)
Procedure, shortened: as §2

[15] = test system: persian speedwell; assay: Test Example 4: herbicidal effect by soil treatment (Table 19, symbol R); assay type: in vivo, Persian speedwell (Veronica persica)
Procedure, shortened: as §2

SMILES | herbicidal effect on H: barnyard grass [1] | herbicidal effect on D: Chinese sprangletop [2] | herbicidal effect on E: rice flat sedge [3] | herbicidal effect, F: southern crabgrass [4] | herbicidal effect, G: green foxtail [5] | herbicidal effect, H: barnyard grass [6] | herbicidal effect, I: wild oat [7] | herbicidal effect, J: blackgrass [8] | herbicidal effect, K: Italian ryegrass [9] | herbicidal effect, L: windgrass [10] | herbicidal effect, M: velvetleaf [11] | herbicidal effect, N: redroot pigweed [12] | herbicidal effect, O: lambsquarters [13] | herbicidal effect, P: chickweed [14] | herbicidal effect, R: persian speedwell [15]
Cc1nn(C)c(=O)c(-c2c(-c3ccc(C(F)(F)F)cc3F)sc3ccc(F)cc23)c1O [2-354] | 5 (Herbicidal rate of 90% or more (almost completely withered)) | 5 (Herbicidal rate of 90% or more (almost completely withered)) | 5 (Herbicidal rate of 90% or more (almost completely withered)) | 0 (Herbicidal rate of 5% or less (almost no effect)) | 1 (Herbicidal rate of 5% or more and less than 20%) | 0 (Herbicidal rate of 5% or less (almost no effect)) | 0 (Herbicidal rate of 5% or less (almost no effect)) | 0 (Herbicidal rate of 5% or less (almost no effect)) | 0 (Herbicidal rate of 5% or less (almost no effect)) | 0 (Herbicidal rate of 5% or less (almost no effect)) | 0 (Herbicidal rate of 5% or less (almost no effect)) | 3 (Herbicidal rate of 40% or more and less than 70%) | 3 (Herbicidal rate of 40% or more and less than 70%) | 1 (Herbicidal rate of 5% or more and less than 20%) | 4 (Herbicidal rate of 70% or more and less than 90%)
COc1cccc(-c2sc3ccc(F)cc3c2-c2c(O)c(C)nn(C)c2=O)c1F [2-362] | 3 (Herbicidal rate of 40% or more and less than 70%) | 0 (Herbicidal rate of 5% or less (almost no effect)) | 3 (Herbicidal rate of 40% or more and less than 70%) | 0 (Herbicidal rate of 5% or less (almost no effect)) | 0 (Herbicidal rate of 5% or less (almost no effect)) | 0 (Herbicidal rate of 5% or less (almost no effect)) | 0 (Herbicidal rate of 5% or less (almost no effect)) | 0 (Herbicidal rate of 5% or less (almost no effect)) | 2 (Herbicidal rate of 20% or more and less than 40%) | 0 (Herbicidal rate of 5% or less (almost no effect)) | 0 (Herbicidal rate of 5% or less (almost no effect)) | 1 (Herbicidal rate of 5% or more and less than 20%) | 3 (Herbicidal rate of 40% or more and less than 70%) | 0 (Herbicidal rate of 5% or less (almost no effect)) | 0 (Herbicidal rate of 5% or less (almost no effect))
COc1ccc(-c2sc3ccc(F)cc3c2-c2c(O)c(C)nn(C)c2=O)c(F)c1 [2-364] | 4 (Herbicidal rate of 70% or more and less than 90%) | 4 (Herbicidal rate of 70% or more and less than 90%) | 5 (Herbicidal rate of 90% or more (almost completely withered)) | 0 (Herbicidal rate of 5% or less (almost no effect)) | 0 (Herbicidal rate of 5% or less (almost no effect)) | 0 (Herbicidal rate of 5% or less (almost no effect)) | 0 (Herbicidal rate of 5% or less (almost no effect)) | 0 (Herbicidal rate of 5% or less (almost no effect)) | 0 (Herbicidal rate of 5% or less (almost no effect)) | 0 (Herbicidal rate of 5% or less (almost no effect)) | 0 (Herbicidal rate of 5% or less (almost no effect)) | 1 (Herbicidal rate of 5% or more and less than 20%) | 4 (Herbicidal rate of 70% or more and less than 90%) | 0 (Herbicidal rate of 5% or less (almost no effect)) | 0 (Herbicidal rate of 5% or less (almost no effect))
CCCC(=O)Oc1c(C)nn(C)c(=O)c1-c1c(-c2ccc(OC)cc2F)sc2ccc(F)cc12 [2-365] | 4 (Herbicidal rate of 70% or more and less than 90%) | 5 (Herbicidal rate of 90% or more (almost completely withered)) | 5 (Herbicidal rate of 90% or more (almost completely withered)) | 0 (Herbicidal rate of 5% or less (almost no effect)) | 0 (Herbicidal rate of 5% or less (almost no effect)) | 0 (Herbicidal rate of 5% or less (almost no effect)) | 0 (Herbicidal rate of 5% or less (almost no effect)) | 0 (Herbicidal rate of 5% or less (almost no effect)) | 0 (Herbicidal rate of 5% or less (almost no effect)) | 0 (Herbicidal rate of 5% or less (almost no effect)) | 0 (Herbicidal rate of 5% or less (almost no effect)) | 3 (Herbicidal rate of 40% or more and less than 70%) | 1 (Herbicidal rate of 5% or more and less than 20%) | 0 (Herbicidal rate of 5% or less (almost no effect)) | 0 (Herbicidal rate of 5% or less (almost no effect))
COc1ccc(F)c(-c2sc3ccc(F)cc3c2-c2c(O)c(C)nn(C)c2=O)c1 [2-366] | 3 (Herbicidal rate of 40% or more and less than 70%) | 0 (Herbicidal rate of 5% or less (almost no effect)) | 3 (Herbicidal rate of 40% or more and less than 70%) | 3 (Herbicidal rate of 40% or more and less than 70%) | 0 (Herbicidal rate of 5% or less (almost no effect)) | 0 (Herbicidal rate of 5% or less (almost no effect)) | 0 (Herbicidal rate of 5% or less (almost no effect)) | 2 (Herbicidal rate of 20% or more and less than 40%) | 4 (Herbicidal rate of 70% or more and less than 90%) | 0 (Herbicidal rate of 5% or less (almost no effect)) | 0 (Herbicidal rate of 5% or less (almost no effect)) | 4 (Herbicidal rate of 70% or more and less than 90%) | 2 (Herbicidal rate of 20% or more and less than 40%) | 3 (Herbicidal rate of 40% or more and less than 70%) | 3 (Herbicidal rate of 40% or more and less than 70%)
Cc1nn(C)c(=O)c(-c2c(-c3cnccc3F)sc3ccc(F)cc23)c1O [2-383] | 5 (Herbicidal rate of 90% or more (almost completely withered)) | 5 (Herbicidal rate of 90% or more (almost completely withered)) | 5 (Herbicidal rate of 90% or more (almost completely withered)) | 4 (Herbicidal rate of 70% or more and less than 90%) | 4 (Herbicidal rate of 70% or more and less than 90%) | 3 (Herbicidal rate of 40% or more and less than 70%) | 3 (Herbicidal rate of 40% or more and less than 70%) | 4 (Herbicidal rate of 70% or more and less than 90%) | 4 (Herbicidal rate of 70% or more and less than 90%) | 3 (Herbicidal rate of 40% or more and less than 70%) | 4 (Herbicidal rate of 70% or more and less than 90%) | 5 (Herbicidal rate of 90% or more (almost completely withered)) | 4 (Herbicidal rate of 70% or more and less than 90%) | 4 (Herbicidal rate of 70% or more and less than 90%) | 5 (Herbicidal rate of 90% or more (almost completely withered))
